Like-named read-outs stand apart in the source and are kept apart here.
What was measured:
H2 receptor [1] = biological target: T1, H2 receptor (Homo sapiens, UniProt P25021); assay: IC50 antagonist activity screen (PathHunter β-Arrestin GPCR assay); type: cell-based; settings: for Maximum inhibition (%) / Emax: maximum inhibition (antagonism) from IC50 curves, about 60% or higher = strong activity; for Emax: read-out: IC50 (Inhibition - Max Response)
Excerpt: It has additionally been discovered that the alkyl side chain length of cannabinoid compounds can influence the effect the cannabinoid compounds have on the GPCR receptors. For example, it has been discovered that increasing the length of the alkyl side chain, generally increases the antagonism of CBG and CBD to the H2 receptor. […] The RC50 value indicates the value at which the cannabinoid reached the reference compound's 50% effective concentration.
(§1) A single assay was run. In each run, PathHunter® cell lines were removed from a freezer stock and seeded at a volume of 20 μL into white walled, 384-well microplates and incubated at 37° C. Each cell was pre-incubated with the cannabinoid compound followed by an agonist challenge at the EC80 concentration. […] were then diluted to generate a 5x sample in assay buffer. 5 μL of the 5x sample was then added to cells and incubated at 37° C. for 30 minutes. Finally, 5 μL of 6x EC80 agonist in assay buffer were added to the cells and incubated at 37° C. for 90 minutes or 180 minutes. The assay signal was generated through addition of 12.5 μL or 15 μL (50% V/V) of a detection reagent cocktail followed by a one hour incubation time at room temperature. Microplates were read following signal generation with a PerkinElmer Envision™ (PerkinElmer Inc., Waltham, Mass.) for chemiluminescent signal detection. Reactivity was analyzed using the CBIS data analysis suite (ChemInnovation, CA) where RLU refers to the raw measured values. The percent inhibition was calculated using the formula: % Inhibition=100%*(1−mean RLU of test sample−mean RLU of control)/(mean RLU of EC80 control−mean RLU of vehicle control).
Based on the results of the GPCR reactivity screen, and IC50 antagonist activity screen was run against the H2 receptor. The IC50 antagonist activity screen was run for each of CBG, CBC, CBL, CBN, CBDV, CBD, CBD-C1, CBD-C2, (+)-CBD, CBG-C6, CBG-C7, CBG-C9, CBD-C6, CBD-C7, CBD-C9, CBGA-C6, CBGA-C7, and CBGA-C9. IC50 curves were measured using the same GPCR assay, PathHunter® β-Arrestin from Eurofins DiscoverX Products (Fremont, Calif.), as the GPCR reactivity screen. As used herein, strong activity against a receptor is considered a maximum activity of about 60% or higher. Higher results for antagonism against the H2 receptor are considered better.

H2 receptor [2] = biological target: T1, H2 receptor; assay: GPCR reactivity screen (PathHunter β-Arrestin GPCR assay), antagonist mode; type: cell-based; settings: for effect on sensitivity to histamine (in words): Table 1, negative inhibition; for H2 Receptor Antagonist Activity (percent inhibition): single assay run, pre-incubation with cannabinoid, then agonist challenge at EC80, test concentration not given, about 60% or higher = strong activity; for H2 antagonist activity in the GPCR reactivity screen (in words): summary of Table 1
Protocol: To evaluate the H2 antagonist activity of the cannabinoid compounds, a GPCR reactivity assay was performed. The evaluated cannabinoid compounds were: CBN, THCV, CBDVA, CBG, CBL, CBC, CBDV, CBDA, CBD, CBGA, (+)-CBD, CBG-C4, CBD-C1, CBD-C2, CBGV, CBGA-C4, CBGVA, CBCA, and CBLA. Tiotidine was used as the control.
as §1
The percent inhibition is depicted. As used herein, strong activity against a receptor is considered a percent activity of about 60% or higher. Higher results for antagonism against the H2 receptor are considered better.

[3] = value at which the cannabinoid reached the reference compound's (tiotidine) 50% effective concentration, H2 receptor antagonist mode, read-out: RC50 (the source's name)

T1 sequence (P25021 whole entry): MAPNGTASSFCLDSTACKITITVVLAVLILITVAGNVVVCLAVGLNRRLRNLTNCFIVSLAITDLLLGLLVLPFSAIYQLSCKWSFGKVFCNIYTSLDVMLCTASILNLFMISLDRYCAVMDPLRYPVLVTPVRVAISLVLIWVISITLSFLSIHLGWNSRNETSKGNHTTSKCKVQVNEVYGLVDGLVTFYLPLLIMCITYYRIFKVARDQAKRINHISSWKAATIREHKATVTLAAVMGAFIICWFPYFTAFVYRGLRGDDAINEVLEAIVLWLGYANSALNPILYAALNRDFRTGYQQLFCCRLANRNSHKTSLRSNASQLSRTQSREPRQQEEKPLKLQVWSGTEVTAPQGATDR

Compound	Maximum inhibition (%) (H2 receptor [1])	IC50 (H2 receptor [1]; [3]) [µM]	H2 Receptor Antagonist Activity (percent inhibition) (H2 receptor [2]) [%]	H2 antagonist activity in the GPCR reactivity screen (in words) (H2 receptor [2])	also measured
C=C(C)[C@@H]1CCC(C)=C[C@H]1c1c(O)cc(CC)cc1O [CBD-C2, cannabidol-C2]	71	5.22	–	–	–
C=C(C)[C@@H]1CCC(C)=C[C@H]1c1c(O)cc(CCCCCC)cc1O [CBD-C6, cannabidol hexyl]	80	0.46	–	–	–
C=C(C)[C@@H]1CCC(C)=C[C@H]1c1c(O)cc(CCCCCCC)cc1O [CBD-C7, cannabidol heptyl]	74	0.38	–	–	–
CCCc1cc(O)c2c(c1)OC(C)(C)[C@@H]1CCC(C)=C[C@@H]21 [THCV, tetrahydrocannabivarin]	–	–	−22	did not demonstrate H2 antagonist activity	effect on sensitivity to histamine (in words) (H2 receptor [2]): increasing sensitivity to histamine
CCCc1cc(O)c(C/C=C(\C)CCC=C(C)C)c(O)c1C(=O)O [CBGVA, cannabigerovarinic acid]	–	–	2	did not demonstrate H2 antagonist activity	–
CCCCCc1cc(O)c2c(c1)OC(C)(C)c1ccc(C)cc1-2 [CBN, cannabinol]	–	–	–	–	IC50 (H2 receptor [1]): > 10 µM; Emax (H2 receptor [1]): 12%
CCCCCc1cc(O)c2c(c1)OC1(C)CCC3C1C2C3(C)C (stereo not shown) [CBL, cannabicyclol]	–	–	–	–	IC50 (H2 receptor [1]): 1.17 µM; Emax (H2 receptor [1]): 64%
C=C(C)[C@@H]1CCC(C)=C[C@H]1c1c(O)cc(C)cc1O [CBD-C1, cannabidiorcol]	53	> 10	47	did not demonstrate H2 antagonist activity	–
CCCCCCCc1cc(O)c(C/C=C(\C)CCC=C(C)C)c(O)c1C(=O)O [CBGA-C7, cannabigerolic acid heptyl]	17	> 10	–	–	–
CCCCc1cc(O)c(C/C=C(\C)CCC=C(C)C)c(O)c1C(=O)O [CBGA-C4, cannabigerolic acid butyl]	–	–	16	did not demonstrate H2 antagonist activity	–
CCCCCc1cc2c(c(O)c1C(=O)O)C=CC(C)(CCC=C(C)C)O2 (stereo not shown) [CBCA, cannabichromenic acid]	–	–	12	did not demonstrate H2 antagonist activity	–
C=C(C)[C@@H]1CCC(C)=C[C@H]1c1c(O)cc(CCC)cc1O [CBDV, cannabidivarin]	–	4.5	–	–	Emax (H2 receptor [1]): 75%
CCCCCCc1cc(O)c(C/C=C(\C)CCC=C(C)C)c(O)c1 [CBG-C6, cannabigerol hexyl]	84	> 10	–	–	–
C=C(C)[C@@H]1CCC(C)=C[C@H]1c1c(O)cc(CCCCCCCCC)cc1O [CBD-C9, cannabidol nonyl]	56	0.1	–	–	–
CCCCCc1cc2c(c(O)c1C(=O)O)C1C3C(CCC3(C)O2)C1(C)C (stereo not shown) [CBLA, cannabicyclolic acid]	–	–	11	did not demonstrate H2 antagonist activity	–
CCCCCCc1cc(O)c(C/C=C(\C)CCC=C(C)C)c(O)c1C(=O)O [CBGA-C6, cannabigerolic acid hexyl]	9	> 10	–	–	–
CCCc1cc(O)c(C/C=C(\C)CCC=C(C)C)c(O)c1 [CBGV, cannabigerivarin]	–	–	10	did not demonstrate H2 antagonist activity	–
CCCCCc1cc(O)c2c(c1)OC(C)(CCC=C(C)C)C=C2 (stereo not shown) [CBC, cannabichromene]	–	–	117	–	IC50 (H2 receptor [1]): 2.63 µM; Emax (H2 receptor [1]): 62%
(+)-cannabidiol [(+)-CBD]	42	> 10	45	did not demonstrate H2 antagonist activity	–
CCCCCCCCCc1cc(O)c(C/C=C(\C)CCC=C(C)C)c(O)c1 [CBG-C9, cannabigerol nonyl]	96	2.89	–	–	–
CCCCc1cc(O)c(CC=C(C)CCC=C(C)C)c(O)c1 [CBG-C4, cannabigerol butyl]	–	–	−62	did not demonstrate H2 antagonist activity	effect on sensitivity to histamine (in words) (H2 receptor [2]): increasing sensitivity to histamine
CCCCCc1cc(O)c(C/C=C(\C)CCC=C(C)C)c(O)c1C(=O)O [CBGA, cannabigerolic acid]	–	–	−3	did not demonstrate H2 antagonist activity	effect on sensitivity to histamine (in words) (H2 receptor [2]): increasing sensitivity to histamine
CCCCCCCc1cc(O)c(C/C=C(\C)CCC=C(C)C)c(O)c1 [CBG-C7, cannabigerol heptyl]	93	3.39	–	–	–
C=C(C)[C@@H]1CCC(C)=C[C@H]1c1c(O)cc(CCCCC)c(C(=O)O)c1O [CBDA, cannabidiolic acid]	–	–	4	did not demonstrate H2 antagonist activity	–
C=C(C)[C@@H]1CCC(C)=C[C@H]1c1c(O)cc(CCCCC)cc1O [CBD, cannabidol]	64	0.83	–	–	–
CCCCCCCCCc1cc(O)c(C/C=C(\C)CCC=C(C)C)c(O)c1C(=O)O [CBGA-C9, cannabigerolic acid nonyl]	11	> 10	–	–	–
C=C(C)[C@@H]1CCC(C)=C[C@H]1c1c(O)cc(CCC)c(C(=O)O)c1O [CBDVA, cannabidivarinic acid]	–	–	12	did not demonstrate H2 antagonist activity	–
CCCCCc1cc(O)c(C/C=C(\C)CCC=C(C)C)c(O)c1 [CBG, cannabigerol]	–	> 10	–	–	Emax (H2 receptor [1]): 21%
